Assay results published in patent US20230167058A1, “GPX4 COMPOUNDS AND COMPOSITIONS AND METHODS OF TREATMENT USING SAME” (THE TRUSTEES OF COLUMBIA UNIVERSITY IN THE CITY OF NEW YORK, priority 2020, published 2023).
“Also recorded” adds a separate entry of the source.

How the values were obtained:
[1] = target: T1, GPX4^U46C (Homo sapiens, UniProt P36969, U73C); test: Intact protein MALDI MS analysis, GPX4^U46C; type: binding; conditions: protein preincubated with excess inhibitor
T1 construct: His6 (N, cleaved yes); made in house; host or cells: E. coli BL21-Gold (DE3), M9 minimal medium with 15NH4Cl
T1 sequence (P36969 33-197 U73C): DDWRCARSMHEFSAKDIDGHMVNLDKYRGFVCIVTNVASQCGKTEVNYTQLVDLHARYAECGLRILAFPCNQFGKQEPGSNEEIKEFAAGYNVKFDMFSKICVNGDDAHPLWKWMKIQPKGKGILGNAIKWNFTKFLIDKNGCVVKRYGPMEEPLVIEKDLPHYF
Experimental: GPX4^U46C or GPX4^AllCys(−)-A46C protein was pre-incubated with DMSO control or the inhibitor to be tested prior to MALDI MS analysis: 50 μM GPX4 protein was incubated with 500 μM inhibitors in FPLC buffer (100 mM Tris pH 8.0, 300 mM NaCl, and 3 mM TCEP) with 5% DMSO at RT for 1 hour before transferring to 4° C. overnight.
1 μl of the ligand-free protein (pre-incubated with DMSO) or protein-inhibitor complex (pre-incubated with the inhibitor to be tested) was mixed with 9 μl of 10 mg/ml sinapinic acid in the matrix solution (70:30 water/acetonitrile, with 0.1% TFA). 1.0 μl of the final mix was deposited onto the target carrier and allowed to air dry. MALDI spectrum was recorded using Bruker ultrafleXtreme MALDI-TOF instrument. The range of m/z detection and suppression was adjusted to accommodate the molecular weight of target protein. 2000 Hz and 50% intensity was applied for the laser setting. For each sample, five cumulative spectra were collected and the sum was recorded for analysis. All MALDI spectra of protein-inhibitor complex were compared with ligand-free protein to determine the mass shift. Mass shifts were aligned with the mass of potential staying group of each inhibitor to conclude covalent binding.

[2] = Aqueous solubility; type: physicochemical
[3] = target: T1, GPX4^U46C; test: 1H,15N-HSQC-NMR of 15N-labeled GPX4^U46C; type: binding
Experimental: Uniformly ^15N-labeled GPX4^U46C protein with N-terminal His6 tag was prepared. The GPX4^U46C construct was expressed in E. coli BL21-Gold (DE3) cells (Stratagene) growing at 37° C. in M9 minimal medium supplemented with […] ampicillin, 2 mM MgSO4, […] CaCl2, 1× trace metals, 1×RPMI 1640 vitamin stock (Sigma-Aldrich, #R7256), […] biotin, […] thiamine hydrochloride, 4 g/L glucose, and 3 g/L ^15NH4Cl as the sole nitrogen source. The following induction, lysis, and protein purification was the same as for the non-isotope-labeled His-tagged GPX4^U46C described above, except the N-terminal His6 tag was removed by adding 5 U/mg thrombin before FPLC purification. The thrombin reaction was after a buffer exchange to remove imidazole, which otherwise would inhibit thrombin, and was allowed to proceed overnight at 4° C.
Then the protein solution was concentrated to 50 μM before testing. For HSQC of GPX4 with other inhibitors, 50 μM ^15N-labeled GPX4 was preincubated with 800 μM inhibitor to be tested for […] at room temperature in buffer (100 mM MES, 5 mM TCEP, pH 6.5). D20 (10%) was then added for the field frequency lock. The ^1H-^15N HSQC spectra were collected on Bruker Avance III 500 Ascend (500 MHz) spectrometers (Columbia University) at 298K. The ^1H carrier frequency was positioned at the water resonance. The ^15N carrier frequency was positioned at 115 ppm. The spectral width in the ^1H dimension was 7,500 Hz and the width in the ^15N dimension was 1,824.6 Hz. Suppression of water signal was accomplished using the WATERGATE sequence. Heteronuclear decoupling was accomplished using GARP decoupling scheme.

[4] = target: T1, GPX4^U46C; test: Inhibition of the activity of purified GPX4^U46C protein (NADPH-coupled); type: biochemical; conditions: 20 μM RSL3 vs DMSO
Experimental: Similar to the determination of cellular GPX4-specific activity, by coupling the oxidation of NADPH to NADP+ by oxidized glutathione produced by GPX4 in the presence of glutathione reductase, GPX4^U46C activity was assessed by measuring the decrease in NADPH (absorbance at 340 nm). GPX4 reaction buffer was prepared by adding 0.05 U/mL glutathione reductase, 210 μM GSH, 250 μM NADPH, 50 μM Cumene-OOH into 50 mM Tris HCl, pH 8.0, 0.5 mM EDTA. 15 μM His-tagged-GPX4^U46C pre-incubated with DMSO (vehicle) or 20 μM RSL3 was added to the GPX4 reaction buffer and the absorbance at 340 nm was monitored for the following 10 min. Results were quantified using GraphPad Prism 9.

[5] = test system: HT1080 cells; test: Single-point ferroptosis test, cellular viability (CellTiter-Glo); type: cell-based, human; conditions: 125 μM LOC1886, 48 h
Experimental: 1000 cells of each HT-1080 or G401 cell line were plated 36 μL per well of a 384-well plate on day 1. The remaining cells were immediately tested for Western Blot (to monitor GPX4 protein overexpression level). For dose response curves, compounds were dissolved in DMSO and a 12-point, twofold dilution series was prepared. The compounds were then diluted 1:50 in media and 4 μL was added to each well of the plates on day 2. Final concentrations of the compounds on the 384-well plate started from 2 μM for RSL3/ML162 and 20 μM for IKE/FIN56/FINO2. For single-point ferroptosis test, HT1080 cells were treated either with 12.5 μM RSL3 or 125 μM LOC1886, with or without supplementation of 2 μM Fer-1. After 48 h of treatment, the viability of cells was measured using 1:1 dilution of the CellTiter-Glo luminescent reagent (Promega G7573) with media, which was read on a Victor 5 plate reader after 10 min of shaking at room temperature on day 4. The intensity of luminescence was normalized to that of DMSO control. Results were quantified using GraphPad Prism 9. Based on the dose-response curve of viability, area under curves were calculated and reported in bar graph formats with standard errors using GraphPad Prism 9.

Row | Binding site ([3]; Table 1) | HSQC assay ([3]; Table 1) | SMILES | covalent binding to GPX4^U46C by intact protein MALDI MS [1] | solubility in aqueous solution [2] | binding mode by HSQC NMR [3] | enzymatic activity of GPX4^U46C after incubation [4] | induction of ferroptosis [5]
1 | – | – | COC(=O)c1ccc([C@@H]2c3[nH]c4ccccc4c3C[C@@H](C(=O)OC)N2C(=O)CCl)cc1 [RSL3, (1S, 3R)-RSL3] | 1:1 covalent binding | low | global conformational change induced by binding of RSL3 to cys66 | inhibited the capability of GPX4 to reduce phospholipid hydroperoxides | –
2 | Allosteric Site 1 | positive | COc1cccc2[nH]c(C(=O)n3ccnc3)cc12 [LOC1886] | covalently bound | – | non-covalently binds to the RSL3-binding site; also recorded: strongly interacted with the cys66 binding site | – | able to induce ferroptosis to HT1080 cells
